Laboratory results: patent US12295936B2, “Immunomodulating urea azalides” (Zoetis Services LLC, priority 2020, dated 2025)

System: BRD pathogens, M. haemolytica and P. multocida
Experiment: MIC screening panel of BRD pathogens (antibacterial / non-antibacterial)
Conditions: Table H, Formula (1-A1) compounds

Row | SMILES | MIC ≤64 μg/mL for at least one BRD bacterial strain (flag * at Ex #)
1 | CCCNC[C@]1(O)[C@H](C)O[C@@H](O[C@H]2[C@H](C)[C@@H](O[C@@H]3O[C@H](C)C[C@H](N(C)C(=O)NCCN4CCCCC4)[C@H]3O)[C@](C)(O)C[C@@H](C)CN[C@H](C)[C@@H](O)[C@](C)(O)[C@@H](CC)OC(=O)[C@@H]2C)C[C@@]1(C)OC [Example H-98, 1-((2S,3R,4S,6R)-2-(((2R,3S,4R,5R,8R,10R,11R,12S,13S,14R)-2-ethyl-3,4,10-trihydroxy-13-(((2R,4R,5S,6S)-5-hydroxy-4-methoxy-4,6-dimethyl-5-((propylamino)methyl)tetrahydro-2H-pyran-2-yl)oxy)-3,5,8,10,12,14-hexamethyl-15-oxo-1-oxa-6-azacyclopentadecan-11-yl)oxy)-3-hydroxy-6-methyltetrahydro-2H-pyran-4-yl)-1-methyl-3-(2-(piperidin-1-yl)ethyl)urea] | H-98* (*MIC ≤64 μg/mL for at least one BRD bacterial strain)

Same assay, conditions: read-out: MIC ≤64 μg/mL for at least one of the bacterial strains (flag * at Ex #)

Row | SMILES | MIC [µg/mL]
2 | CC[C@H]1OC(=O)[C@H](C)[C@@H](O[C@H]2C[C@@](C)(OC)[C@](O)(CN3CCSCC3)[C@H](C)O2)[C@H](C)[C@@H](O[C@@H]2O[C@H](C)C[C@H](N(C)C(=O)N(C)c3ccccc3)[C@H]2O)[C@](C)(O)C[C@@H](C)CN[C@H](C)[C@@H](O)[C@]1(C)O [Example J-11, 1-((2S,3R,4S,6R)-2-(((2R,3S,4R,5R,8R,10R,11R,12S,13S,14R)-2-ethyl-3,4,10-trihydroxy-13-(((2R,4R,5S,6S)-5-hydroxy-4-methoxy-4,6-dimethyl-5-(thiomorpholinomethyl)tetrahydro-2H-pyran-2-yl)oxy)-3,5,8,10,12,14-hexamethyl-15-oxo-1-oxa-6-azacyclopentadecan-11-yl)oxy)-3-hydroxy-6-methyltetrahydro-2H-pyran-4-yl)-1,3-dimethyl-3-phenylurea] | < 64

Same assay, conditions: read-out: antibacterial / non-antibacterial (MIC for the BRD pathogens)

Row | SMILES | MIC [µg/mL]
3 | CCCNC[C@]1(O)[C@H](C)O[C@@H](O[C@H]2[C@H](C)[C@@H](O[C@@H]3O[C@H](C)C[C@H](N(C)C(=O)Nc4ccc(Cl)cc4)[C@H]3O)[C@](C)(O)C[C@@H](C)CN[C@H](C)[C@@H](O)[C@](C)(O)[C@@H](CC)OC(=O)[C@@H]2C)C[C@@]1(C)OC [Example H-84, 3-(4-chlorophenyl)-1-((2S,3R,4S,6R)-2-(((2R,3S,4R,5R,8R,10R,11R,12S,13S,14R)-2-ethyl-3,4,10-trihydroxy-13-(((2R,4R,5S,6S)-5-hydroxy-4-methoxy-4,6-dimethyl-5-((propylamino)methyl)tetrahydro-2H-pyran-2-yl)oxy)-3,5,8,10,12,14-hexamethyl-15-oxo-1-oxa-6-azacyclopentadecan-11-yl)oxy)-3-hydroxy-6-methyltetrahydro-2H-pyran-4-yl)-1-methylurea] | > 64
4 | CCCNC[C@]1(O)[C@H](C)O[C@@H](O[C@H]2[C@H](C)[C@@H](O[C@@H]3O[C@H](C)C[C@H](N(C)C(=O)Nc4cccc(F)c4)[C@H]3O)[C@](C)(O)C[C@@H](C)CN[C@H](C)[C@@H](O)[C@](C)(O)[C@@H](CC)OC(=O)[C@@H]2C)C[C@@]1(C)OC [Example H-85, 1-((2S,3R,4S,6R)-2-(((2R,3S,4R,5R,8R,10R,11R,12S,13S,14R)-2-ethyl-3,4,10-trihydroxy-13-(((2R,4R,5S,6S)-5-hydroxy-4-methoxy-4,6-dimethyl-5-((propylamino)methyl)tetrahydro-2H-pyran-2-yl)oxy)-3,5,8,10,12,14-hexamethyl-15-oxo-1-oxa-6-azacyclopentadecan-11-yl)oxy)-3-hydroxy-6-methyltetrahydro-2H-pyran-4-yl)-3-(3-fluorophenyl)-1-methylurea] | > 64
5 | CCCNC[C@]1(O)[C@H](C)O[C@@H](O[C@H]2[C@H](C)[C@@H](O[C@@H]3O[C@H](C)C[C@H](N(C)C(=O)Nc4cccc(OC)c4)[C@H]3O)[C@](C)(O)C[C@@H](C)CN[C@H](C)[C@@H](O)[C@](C)(O)[C@@H](CC)OC(=O)[C@@H]2C)C[C@@]1(C)OC [Example H-86, 1-((2S,3R,4S,6R)-2-(((2R,3S,4R,5R,8R,10R,11R,12S,13S,14R)-2-ethyl-3,4,10-trihydroxy-13-(((2R,4R,5S,6S)-5-hydroxy-4-methoxy-4,6-dimethyl-5-((propylamino)methyl)tetrahydro-2H-pyran-2-yl)oxy)-3,5,8,10,12,14-hexamethyl-15-oxo-1-oxa-6-azacyclopentadecan-11-yl)oxy)-3-hydroxy-6-methyltetrahydro-2H-pyran-4-yl)-3-(3-methoxyphenyl)-1-methylurea] | > 64
6 | CCCNC[C@]1(O)[C@H](C)O[C@@H](O[C@H]2[C@H](C)[C@@H](O[C@@H]3O[C@H](C)C[C@H](N(C)C(=O)NC)[C@H]3O)[C@](C)(O)C[C@@H](C)CN[C@H](C)[C@@H](O)[C@](C)(O)[C@@H](CC)OC(=O)[C@@H]2C)C[C@@]1(C)OC [Example H-92, 1-((2S,3R,4S,6R)-2-(((2R,3S,4R,5R,8R,10R,11R,12S,13S,14R)-2-ethyl-3,4,10-trihydroxy-13-(((2R,4R,5S,6S)-5-hydroxy-4-methoxy-4,6-dimethyl-5-((propylamino)methyl)tetrahydro-2H-pyran-2-yl)oxy)-3,5,8,10,12,14-hexamethyl-15-oxo-1-oxa-6-azacyclopentadecan-11-yl)oxy)-3-hydroxy-6-methyltetrahydro-2H-pyran-4-yl)-1,3-dimethylurea] | > 64
7 | CCCNC(=O)N(C)[C@H]1C[C@@H](C)O[C@@H](O[C@@H]2[C@@H](C)[C@H](O[C@H]3C[C@@](C)(OC)[C@](O)(CNC4CC4)[C@H](C)O3)[C@@H](C)C(=O)O[C@H](CC)[C@@](C)(O)[C@H](O)[C@@H](C)NC[C@H](C)C[C@@]2(C)O)[C@@H]1O [Example H-93, 1-((2S,3R,4S,6R)-2-(((2R,3S,4R,5R,8R,10R,11R,12S,13S,14R)-13-(((2R,4R,5S,6S)-5-((cyclopropylamino)methyl)-5-hydroxy-4-methoxy-4,6-dimethyltetrahydro-2H-pyran-2-yl)oxy)-2-ethyl-3,4,10-trihydroxy-3,5,8,10,12,14-hexamethyl-15-oxo-1-oxa-6-azacyclopentadecan-11-yl)oxy)-3-hydroxy-6-methyltetrahydro-2H-pyran-4-yl)-1-methyl-3-propylurea] | > 64
8 | CCCNC(=O)N(C)[C@H]1C[C@@H](C)O[C@@H](O[C@@H]2[C@@H](C)[C@H](O[C@H]3C[C@@](C)(OC)[C@](O)(CNC4CCC4)[C@H](C)O3)[C@@H](C)C(=O)O[C@H](CC)[C@@](C)(O)[C@H](O)[C@@H](C)NC[C@H](C)C[C@@]2(C)O)[C@@H]1O [Example H-94, 1-((2S,3R,4S,6R)-2-(((2R,3S,4R,5R,8R,10R,11R,12S,13S,14R)-13-(((2R,4R,5S,6S)-5-((cyclobutylamino)methyl)-5-hydroxy-4-methoxy-4,6-dimethyltetrahydro-2H-pyran-2-yl)oxy)-2-ethyl-3,4,10-trihydroxy-3,5,8,10,12,14-hexamethyl-15-oxo-1-oxa-6-azacyclopentadecan-11-yl)oxy)-3-hydroxy-6-methyltetrahydro-2H-pyran-4-yl)-1-methyl-3-propylurea] | > 64
9 | CCCNC[C@]1(O)[C@H](C)O[C@@H](O[C@H]2[C@H](C)[C@@H](O[C@@H]3O[C@H](C)C[C@H](N(C)C(=O)N(C)c4ccc(O)cc4)[C@H]3O)[C@](C)(O)C[C@@H](C)CN[C@H](C)[C@@H](O)[C@](C)(O)[C@@H](CC)OC(=O)[C@@H]2C)C[C@@]1(C)OC [Example H-99, 1-((2S,3R,4S,6R)-2-(((2R,3S,4R,5R,8R,10R,11R,12S,13S,14R)-2-ethyl-3,4,10-trihydroxy-13-(((2R,4R,5S,6S)-5-hydroxy-4-methoxy-4,6-dimethyl-5-((propylamino)methyl)tetrahydro-2H-pyran-2-yl)oxy)-3,5,8,10,12,14-hexamethyl-15-oxo-1-oxa-6-azacyclopentadecan-11-yl)oxy)-3-hydroxy-6-methyltetrahydro-2H-pyran-4-yl)-3-(4-hydroxyphenyl)-1,3-dimethylurea] | > 64
10 | CCCNC[C@]1(O)[C@H](C)O[C@@H](O[C@H]2[C@H](C)[C@@H](O[C@@H]3O[C@H](C)C[C@H](N(C)C(=O)N(C)c4ccccc4)[C@H]3O)[C@](C)(O)C[C@@H](C)CN(C)[C@H](C)[C@@H](O)[C@](C)(O)[C@@H](CC)OC(=O)[C@@H]2C)C[C@@]1(C)OC [Example H-101, 1-((2S,3R,4S,6R)-2-(((2R,3S,4R,5R,8R,10R,11R,12S,13S,14R)-2-ethyl-3,4,10-trihydroxy-13-(((2R,4R,5S,6S)-5-hydroxy-4-methoxy-4,6-dimethyl-5-((propylamino)methyl)tetrahydro-2H-pyran-2-yl)oxy)-3,5,6,8,10,12,14-heptamethyl-15-oxo-1-oxa-6-azacyclopentadecan-11-yl)oxy)-3-hydroxy-6-methyltetrahydro-2H-pyran-4-yl)-1,3-dimethyl-3-phenylurea] | > 64
11 | CC[C@H]1OC(=O)[C@H](C)[C@@H](O[C@H]2C[C@@](C)(OC)[C@](O)(CNC)[C@H](C)O2)[C@H](C)[C@@H](O[C@@H]2O[C@H](C)C[C@H](N(C)C(=O)N3CCN(CC)CC3)[C@H]2O)[C@](C)(O)C[C@@H](C)CN[C@H](C)[C@@H](O)[C@]1(C)O [Example I-1, 4-ethyl-N-((2S,3R,4S,6R)-2-(((2R,3S,4R,5R,8R,10R,11R,12S,13S,14R)-2-ethyl-3,4,10-trihydroxy-13-(((2R,4R,5S,6S)-5-hydroxy-4-methoxy-4,6-dimethyl-5-((methylamino)methyl)tetrahydro-2H-pyran-2-yl)oxy)-3,5,8,10,12,14-hexamethyl-15-oxo-1-oxa-6-azacyclopentadecan-11-yl)oxy)-3-hydroxy-6-methyltetrahydro-2H-pyran-4-yl)-N-methylpiperazine-1-carboxamide] | > 64
